Structures are written as SMILES.

In the experiment the target is human GPR43 (Homo sapiens (Human), UniProt O15552). Nature of the experiment: Ca-Flux functional assay: determination of agonist/positive allosteric modulator (PAM) activity. Format: cell-based. Conditions: CHO-K1 Gα16 cells stably expressing human GPR43; compound added with EC20 sodium acetate; intracellular Ca2+ by FLIPR; does not distinguish agonist from PAM. The essentials: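 Agonist or PAM activity read as intracellular Ca2+ rise by FLIPR after adding compound plus EC20 acetate, acetate EC20 set from a prior curve. Cells: CHO-K1 Gα16 with stable human GPR43. EC50 from ten-point half-log curves starting 10 μM.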
Chain of human GPR43 (O15552 whole entry): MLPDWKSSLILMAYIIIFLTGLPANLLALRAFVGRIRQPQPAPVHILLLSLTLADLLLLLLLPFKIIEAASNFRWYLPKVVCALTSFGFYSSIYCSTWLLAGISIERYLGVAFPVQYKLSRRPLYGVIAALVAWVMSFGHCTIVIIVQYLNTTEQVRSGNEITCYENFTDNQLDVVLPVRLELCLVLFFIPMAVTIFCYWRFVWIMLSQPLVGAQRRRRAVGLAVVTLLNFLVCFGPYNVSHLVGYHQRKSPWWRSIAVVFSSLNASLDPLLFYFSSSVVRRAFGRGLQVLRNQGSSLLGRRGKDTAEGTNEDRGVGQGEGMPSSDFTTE
A word on the EC50: it is the concentration that produces a half-maximal response. Lower therefore signals greater potency. `COc1ccc(S(=O)(=O)c2c(N)[nH]c3c(N4CCO[C@H](C(F)(F)F)C4)nc(C)nc23)c(F)c1` [Example 282, 7-(2-fluoro-4-methoxybenzenesulfonyl)-2-methyl-4-[(2S)-2-(trifluoromethyl)morpholin-4-yl]-5H-pyrrolo[3,2-d]pyrimidin-6-amine] displayed an EC50 of 1 nM. On to `COc1ccc(S(=O)(=O)c2c(N)[nH]c3c(C4CCCC4)ncnc23)cc1` [Example 73, 4-cyclopentyl-7-(4-methoxybenzenesulfonyl)-5H-pyrrolo[3,2-d]pyrimidin-6-amine], for which it took 118 nM to reach a half-maximal effect (EC50). In the case of `Nc1[nH]c2c(OCc3ccccc3)ncnc2c1S(=O)(=O)c1ccccc1` [Example 168, 7-(benzenesulfonyl)-4-(benzyloxy)-5H-pyrrolo[3,2-d]pyrimidin-6-amine], the response was half-maximal at 134 nM (EC50). For `Cc1nc(N2CCOC(C)C2)c2[nH]c(N)c(S(=O)(=O)c3ccc(F)cc3F)c2n1` (stereo not drawn) [Example 262, 7-(2,4-difluorobenzenesulfonyl)-2-methyl-4-(2-methylmorpholin-4-yl)-5H-pyrrolo[3,2-d]pyrimidin-6-amine], a half-maximal effect (EC50) was put at 5 nM. In the case of `Nc1[nH]c2c(Br)cncc2c1S(=O)(=O)c1ccccc1` [Example 77, 3-(benzenesulfonyl)-7-bromo-1H-pyrrolo[3,2-c]pyridin-2-amine] it was 628 nM; in that of `CCC(Oc1nc(C)nc2c(S(=O)(=O)c3ccccc3)c(N)[nH]c12)C1CC1` (stereo not drawn) [Example 243, 7-(benzenesulfonyl)-4-(1-cyclopropylpropoxy)-2-methyl-5H-pyrrolo[3,2-d]pyrimidin-6-amine], 11 nM; in that of `Nc1[nH]c2c(N3CCOC(C(F)(F)F)C3)ncnc2c1S(=O)(=O)c1ccccc1` (stereo not drawn) [Example 141, 7-(benzenesulfonyl)-4-[2-(trifluoromethyl)morpholin-4-yl]-5H-pyrrolo[3,2-d]pyrimidin-6-amine], 12 nM. In the case of `CSc1nc(N2CCOC(C(F)(F)F)C2)c2[nH]c(N)c(S(=O)(=O)c3ccccc3F)c2n1` (stereo not drawn) [Example 301, 7-(2-fluorobenzenesulfonyl)-2-(methylsulfanyl)-4-[2-(trifluoromethyl)morpholin-4-yl]-5H-pyrrolo[3,2-d]pyrimidin-6-amine] it was 14 nM; in that of `CCC(CC)Oc1ncnc2c(S(=O)(=O)c3ccccc3)c(N)[nH]c12` [Example 213, 7-(benzenesulfonyl)-4-(pentan-3-yloxy)-5H-pyrrolo[3,2-d]pyrimidin-6-amine], 17 nM; in that of `Cc1nc(OCC2CC2(C)C)c2[nH]c(N)c(S(=O)(=O)c3ccccc3)c2n1` (stereo not drawn) [Example 245, 7-(benzenesulfonyl)-4-[(2,2-dimethylcyclopropyl)methoxy]-2-methyl-5H-pyrrolo[3,2-d]pyrimidin-6-amine], 57 nM. Regarding `CC(C)Oc1ccc(S(=O)(=O)c2c(N)[nH]c3c(N4CCOC(C)C4)ncnc23)cc1` (stereo not drawn) [Example 126, 4-(2-methylmorpholin-4-yl)-7-[4-(propan-2-yloxy)benzenesulfonyl]-5H-pyrrolo[3,2-d]pyrimidin-6-amine], a half-maximal response (EC50) required 53 nM. As to `CCN(CC1CCOCC1)c1ncnc2c(S(=O)(=O)c3ccccc3)c(N)[nH]c12` [Example 188, 7-(benzenesulfonyl)-4-N-ethyl-4-N-(oxan-4-ylmethyl)-5H-pyrrolo[3,2-d]pyrimidine-4,6-diamine], the EC50 was 2660 nM. To `Nc1[nH]c2c(OC3CCCCC3)ncnc2c1S(=O)(=O)c1ccccc1` [Example 160, 7-(benzenesulfonyl)-4-(cyclohexyloxy)-5H-pyrrolo[3,2-d]pyrimidin-6-amine] belongs 39 nM. In the case of `COc1ccc(S(=O)(=O)c2c(N)[nH]c3c(N4CCOC(C)(C)C4)nc(C)nc23)c(F)c1` [Example 241, 4-(2,2-dimethylmorpholin-4-yl)-7-(2-fluoro-4-methoxybenzenesulfonyl)-2-methyl-5H-pyrrolo[3,2-d]pyrimidin-6-amine] it was 2 nM. Turning to `Cc1nc(C2CCCC2)c2[nH]c(N)c(S(=O)(=O)c3cccc(F)c3)c2n1` [Example 209, 4-cyclopentyl-7-(3-fluorobenzenesulfonyl)-2-methyl-5H-pyrrolo[3,2-d]pyrimidin-6-amine], the EC50 was 303 nM. Take `CN(c1ncnc2c(S(=O)(=O)c3ccccc3)c(N)[nH]c12)C1CCOCC1` [Example 115, 7-(benzenesulfonyl)-4-N-methyl-4-N-(oxan-4-yl)-5H-pyrrolo[3,2-d]pyrimidine-4,6-diamine]: the EC50 turned out to be 798 nM. In turn, `Nc1[nH]c2c(OCC3CCCCO3)ncnc2c1S(=O)(=O)c1ccccc1` (stereo not drawn) [Example 156, 7-(benzenesulfonyl)-4-(oxan-2-ylmethoxy)-5H-pyrrolo[3,2-d]pyrimidin-6-amine] had an EC50 of 3000 nM. `COCC1CN(c2ncnc3c(S(=O)(=O)c4ccccc4)c(N)[nH]c23)CCO1` (stereo not drawn) [Example 81, 7-(benzenesulfonyl)-4-[2-(methoxymethyl)morpholin-4-yl]-5H-pyrrolo[3,2-d]pyrimidin-6-amine] yielded an EC50 of 1210 nM. On to `COc1ccccc1S(=O)(=O)c1c(N)[nH]c2c(N3CCOC(C)C3)ncnc12` (stereo not drawn) [Example 152, 7-(2-methoxybenzenesulfonyl)-4-(2-methylmorpholin-4-yl)-5H-pyrrolo[3,2-d]pyrimidin-6-amine], for which the EC50 amounted to 2150 nM. Compound `Cc1nc(OC(C)C2CCCC2)c2[nH]c(N)c(S(=O)(=O)c3ccccc3)c2n1` (stereo not drawn) [Example 247, 7-(benzenesulfonyl)-4-(1-cyclopentylethoxy)-2-methyl-5H-pyrrolo[3,2-d]pyrimidin-6-amine] returned a half-maximal effective concentration (EC50) of 16 nM. In the case of `CC(C)c1ncnc2c(S(=O)(=O)c3ccccc3)c(N)[nH]c12` [Example 15, 7-(benzenesulfonyl)-4-(propan-2-yl)-5H-pyrrolo[3,2-d]pyrimidin-6-amine] it was 1060 nM; in that of `CCc1nc(C2CCCCC2)c2[nH]c(N)c(S(=O)(=O)c3ccccc3)c2n1` [Example 53, 7-(benzenesulfonyl)-4-cyclohexyl-2-ethyl-5H-pyrrolo[3,2-d]pyrimidin-6-amine], 58 nM. To `Nc1[nH]c2c(OC3CCC(F)(F)CC3)ncnc2c1S(=O)(=O)c1ccccc1` [Example 211, 7-(benzenesulfonyl)-4-[(4,4-difluorocyclohexyl)oxy]-5H-pyrrolo[3,2-d]pyrimidin-6-amine] belongs 34 nM; to `Cc1nc(OCC(C)(C)C)c2[nH]c(N)c(S(=O)(=O)c3ccccc3)c2n1` [Example 250, 7-(benzenesulfonyl)-4-(2,2-dimethylpropoxy)-2-methyl-5H-pyrrolo[3,2-d]pyrimidin-6-amine], 114 nM.

For the compound `CCN(CC1CCCCC1)c1ncnc2c(S(=O)(=O)c3ccccc3)c(N)[nH]c12` [Example 83, 7-(benzenesulfonyl)-4-N-(cyclohexylmethyl)-4-N-ethyl-5H-pyrrolo[3,2-d]pyrimidine-4,6-diamine], the EC50 came to 100 nM. In the case of `Cc1nc(N2CCOC(C)(C)C2)c2[nH]c(N)c(S(=O)(=O)c3cc(F)ccc3F)c2n1` [Example 288, 7-(2,5-difluorobenzenesulfonyl)-4-(2,2-dimethylmorpholin-4-yl)-2-methyl-5H-pyrrolo[3,2-d]pyrimidin-6-amine] it was 8 nM; in that of `Cc1nc(OC2CCOC2(C)C)c2[nH]c(N)c(S(=O)(=O)c3ccccc3)c2n1` (stereo not drawn) [Example 258, 7-(benzenesulfonyl)-4-[(2,2-dimethyloxolan-3-yl)oxy]-2-methyl-5H-pyrrolo[3,2-d]pyrimidin-6-amine], 209 nM. `Cc1nc(N2CCO[C@H](C)[C@H]2C)c2[nH]c(N)c(S(=O)(=O)c3ccccc3F)c2n1` [Example 276, 4-[(RR,SS)-2,3-dimethylmorpholin-4-yl]-7-(2-fluorobenzenesulfonyl)-2-methyl-5H-pyrrolo[3,2-d]pyrimidin-6-amine] showed a concentration giving a half-maximal response (EC50) of 16 nM.

Regarding `COc1ccc(S(=O)(=O)c2c(N)[nH]c3c(N4CCOC(C)C4)ncnc23)cc1F` (stereo not drawn) [Example 124, 7-(3-fluoro-4-methoxybenzenesulfonyl)-4-(2-methylmorpholin-4-yl)-5H-pyrrolo[3,2-d]pyrimidin-6-amine], the EC50 was 63 nM. Consider `Nc1[nH]c2c(C3=CCCCC3)ncnc2c1S(=O)(=O)C1CCOC1` (stereo not drawn) [Example 78, 4-(cyclohex-1-en-1-yl)-7-(oxolane-3-sulfonyl)-5H-pyrrolo[3,2-d]pyrimidin-6-amine], for which the EC50 is 2340 nM. Compound `CC(Oc1ncnc2c(S(=O)(=O)c3ccccc3)c(N)[nH]c12)C1CC1` (stereo not drawn) [Example 170, 7-(benzenesulfonyl)-4-(1-cyclopropylethoxy)-5H-pyrrolo[3,2-d]pyrimidin-6-amine] showed an EC50 of 40 nM. In the case of `Nc1[nH]c2c(C3=CCC(F)(F)CC3)ncnc2c1S(=O)(=O)c1ccccc1` [Example 127, 7-(benzenesulfonyl)-4-(4,4-difluorocyclohex-1-en-1-yl)-5H-pyrrolo[3,2-d]pyrimidin-6-amine], a half-maximal effect (EC50) was put at 36 nM. In the case of `COC[C@H]1CCCN1c1ncnc2c(S(=O)(=O)c3ccccc3)c(N)[nH]c12` [Example 118, 7-(benzenesulfonyl)-4-[(2R)-2-(methoxymethyl)pyrrolidin-1-yl]-5H-pyrrolo[3,2-d]pyrimidin-6-amine], it took 5180 nM to reach a half-maximal effect (EC50). Take `CSc1nc(N2CCOC(C)C2)c2[nH]c(N)c(S(=O)(=O)c3ccccc3F)c2n1` (stereo not drawn) [Example 269, 7-(2-fluorobenzenesulfonyl)-4-(2-methylmorpholin-4-yl)-2-(methylsulfanyl)-5H-pyrrolo[3,2-d]pyrimidin-6-amine]: the midpoint of the response, the EC50, lay at 9 nM.

In the case of `CCC(CC)Oc1nc(C)nc2c(S(=O)(=O)c3ccccc3)c(N)[nH]c12` [Example 248, 7-(benzenesulfonyl)-2-methyl-4-(pentan-3-yloxy)-5H-pyrrolo[3,2-d]pyrimidin-6-amine], the EC50 came to 22 nM.

Consider `COc1ccc(S(=O)(=O)c2c(N)[nH]c3c(N4CCO[C@@H](C(F)(F)F)C4)nc(C)nc23)c(F)c1` [Example 293, 7-(2-fluoro-4-methoxybenzenesulfonyl)-2-methyl-4-[(2R)-2-(trifluoromethyl)morpholin-4-yl]-5H-pyrrolo[3,2-d]pyrimidin-6-amine], for which it took 2 nM to reach a half-maximal effect (EC50).

The values are drawn from patent publication US10059713B2 (Takeda Pharmaceutical Company Limited, priority 2014, dated 2018).
